# Laboratory results reported in ChEMBL document CHEMBL6087448, “Eradication of Therapy-Resistant Cancer Stem Cells by Novel Telmisartan Derivatives” (J Med Chem, 2025).
# The source made the active and inactive calls. The rule behind the calls is not given here.
# Assays:
# COS-7 = test: Cytotoxicity against African green monkey COS-7 cells assessed as reduction in metabolic activity at 10 uM incubated for 72 hrs by MTT assay; type: toxicity, cell-based; conditions: chlorocebus aethiops, cos-7, 72 h
# K-562R [1] = test: Effect on ABCB1 protein expression in human K562-r cells at 4 uM incubated for 72 hrs by Western blotting based immunoassay; type: functional, cell-based
# K562-r [2] = test: Effect on STAT5 phosphorylation in human K562-r cells at 4 uM measured after 6 hrs by Western blotting based immunoassay; type: cell-based
# K562-r [3] = test: Inhibition of STAT5 phosphorylation in human K562-r cells at 4 uM measured after 72 hrs by Western blotting based immunoassay; type: cell-based
# K562-r [4] = test: Inhibition of STAT5 phosphorylation in human K562-r cells at 4 uM measured after 6 hrs in presence of imatinib by Western blotting based immunoassay; type: cell-based
# K-562R [5] = test: Inhibition of side population phenotype in human K562-r cells at 10 uM incubated for 90 mins by DCV staining based flow cytometric analysis relative to control; type: functional
# MCF7 [6] = test: Inhibition of side population phenotype in human MCF7 cells expressing ABCG2 at 10 uM incubated for 90 mins by DCV staining based flow cytometric analysis; type: functional, cell-based
# A549 [7] = test: Inhibition of side population phenotype in human A549 cells expressing ABCC1 at 10 uM incubated for 90 mins by DCV staining based flow cytometric analysis; type: functional, cell-based
# A2780/Taxol [8] = test: Inhibition of side population phenotype in human Paclitaxel-resistant A2780 cells expressing ABCB1 at 10 uM incubated for 90 mins by DCV staining based flow cytometric analysis; type: functional, cell-based
# [9] = system: Paclitaxel-resistant IGROV-1 cell; test: Inhibition of side population phenotype in human Paclitaxel-resistant IGROV-1 cells expressing ABCB1 at 10 uM incubated for 90 mins by DCV staining based flow cytometric analysis; type: functional
# [10] = system: Docetaxel-resistant PC-3 cell; test: Inhibition of side population phenotype in human Docetaxel-resistant PC-3 cell expressing ABCB1 at 10 uM incubated for 90 mins by DCV staining based flow cytometric analysis; type: functional
# [11] = system: Docetaxel-resistant DU145 cell; test: Inhibition of side population phenotype in human Docetaxel-resistant DU145 cell expressing ABCB1 at 10 uM incubated for 90 mins by DCV staining based flow cytometric analysis; type: functional
# [12] = system: Paclitaxel-resistant A2780; test: Inhibition of STAT5 phosphorylation in human Paclitaxel-resistant A2780 cells expressing ABCB1 at 10 uM incubated for 72 hrs by Western blotting based immunoassay; type: cell-based
# [13] = system: Paclitaxel-resistant IGROV-1 cell; test: Inhibition of STAT5 phosphorylation in human Paclitaxel-resistant IGROV-1 cells expressing ABCB1 at 10 uM incubated for 72 hrs by Western blotting based immunoassay
# MCF7 [14] = test: Inhibition of STAT5 phosphorylation in human MCF7 cells at 10 uM incubated for 72 hrs by Western blotting based immunoassay; type: cell-based
# A549 [15] = test: Inhibition of STAT5 phosphorylation in human A549 cells at 10 uM incubated for 72 hrs by Western blotting based immunoassay; type: cell-based
# A2780/Taxol [16] = test: Effect on STAT5 protein expression in human Paclitaxel-resistant A2780 cells expressing ABCB1 at 10 uM incubated for 72 hrs by Western blotting based immunoassay; type: functional, cell-based
# MCF7 [17] = test: Effect on STAT5 protein expression in human MCF7 cells at 10 uM incubated for 72 hrs by Western blotting based immunoassay; type: functional, cell-based
# A549 [18] = test: Effect on STAT5 protein expression in human A549 cells at 10 uM incubated for 72 hrs by Western blotting based immunoassay; type: functional, cell-based
# [19] = system: Paclitaxel-resistant IGROV-1 cell; test: Downregulation of STAT5 protein expression in human Paclitaxel-resistant IGROV-1 cells expressing ABCB1 at 10 uM incubated for 72 hrs by Western blotting based immunoassay; type: functional
# A2780/Taxol [20] = test: Sensitization of paclitaxel-induced cytotoxicity against human Paclitaxel-resistant A2780 cells assessed as reduction in metabolic activity at 10 uM measured after 72 hrs by MTT assay; type: functional, cell-based
# [21] = system: Paclitaxel-resistant IGROV-1 cell; test: Enhancement of paclitaxel-induced anti-metabolic activity in human Paclitaxel-resistant IGROV-1 cells assessed as reduction in metabolic activity upto 300 nM measured after 72 hrs by MTT assay; type: functional, cell-based
# [22] = system: Docetaxel-resistant PC-3 cell; test: Enhancement of docetaxel-induced anti-metabolic activity against human Docetaxel-resistant PC-3 cell assessed as reduction in metabolic activity at 10 uM measured after 72 hrs by MTT assay; type: functional, cell-based
# [23] = system: Docetaxel-resistant DU145 cell; test: Enhancement of docetaxel-induced anti-metabolic activity against human Docetaxel-resistant DU145 cell assessed as reduction in metabolic activity at 10 uM measured after 72 hrs by MTT assay; type: functional, cell-based
# K-562R [24] = test: Sensitization of imatinib-induced cytotoxicity against human K562-r cells assessed as cell viability at 10 uM measured after 72 hrs by MTT assay relative to control; type: functional; conditions: read-out: Activity
# K-562R [25] = test: Sensitization of imatinib-induced cytotoxicity against human K562-r cells assessed as metabolic activity at 8 uM measured after 72 hrs by MTT assay relative to control; type: functional
# K562-r [26] = test: Effect on STAT5 phosphorylation in human K562-r cells at 4 uM measured after 6 hrs in presence of imatinib by Western blotting based immunoassay; type: cell-based
# K-562R [27] = test: Sensitization of imatinib-induced cytotoxicity against human K562-r cells assessed as reduction in metabolic activity at 10 uM measured after 72 hrs by MTT assay; type: functional, cell-based
# K-562R [28] = test: Sensitization of imatinib-induced cytotoxicity against human K562-r cells assessed as reduction in metabolic activity at 0.5 to 6 uM measured after 72 hrs by MTT assay; type: functional, cell-based; conditions: dose 0.5-6 µM
# K562 = test: Cytotoxicity against human K562 cells assessed as reduction in metabolic activity at 10 uM measured after 72 hrs by MTT assay; type: functional, cell-based
# K-562R [29] = test: Cytotoxicity against human K562-r cells assessed as reduction in metabolic activity; type: functional, cell-based
# K562-r [30] = test: Effect on STAT5 phosphorylation in human K562-r cells at 4 uM measured after 72 hrs by Western blotting based immunoassay; type: cell-based
# K-562R [31] = test: Inhibition of side population phenotype in human K562-r cells at 0.1 uM incubated for 90 mins by DCV staining based flow cytometric analysis; type: functional, cell-based
# K-562R [32] = test: Cytotoxicity against human K562-r cells assessed as cell viability at 10 uM incubated for 72 hrs by MTT assay relative to control; type: functional; conditions: read-out: Activity
smiles,measurement,setting,value
CCCc1nc2ccccc2n1Cc1ccc(-c2cccc(C(N)=O)c2)cc1,Activity,COS-7,Non-toxic
same,Activity,K-562R [1],inactive
same,Activity,K562-r [2],inactive
same,inhibition,K562-r [3],Active; Lesser Effect Observed
same,inhibition,K562-r [4],Active
same,inhibition,K-562R [5],Active
same,inhibition,MCF7 [6],inactive
same,inhibition,A549 [7],inactive
same,inhibition,A2780/Taxol [8],Active
same,inhibition,[9],Active
same,inhibition,[10],Active
same,inhibition,[11],Active
same,inhibition,[12],Active
same,inhibition,[13],Active
same,inhibition,MCF7 [14],Active
same,inhibition,A549 [15],Active
same,Activity,A2780/Taxol [16],inactive
same,Activity,MCF7 [17],inactive
same,Activity,A549 [18],inactive
same,Activity,[19],Active
same,Activity,A2780/Taxol [20],Active
same,Activity,[21],Active
same,Activity,[22],Active
same,Activity,[23],Active
CCCc1nc2ccccc2n1Cc1ccccc1C(=O)OC,Activity,COS-7,Non-toxic
same,viability at 10 µM,K-562R [24],34%
same,Activity,K-562R [25],44%
same,Activity,K-562R [1],inactive
same,Activity,K562-r [2],inactive
same,inhibition,K562-r [3],Active; Lesser Effect Observed
same,Activity,K562-r [26],inactive
same,inhibition,K-562R [5],inactive
CCCc1nc2ccccc2n1Cc1ccc(C(=O)O)cc1,Activity,COS-7,Non-toxic
same,Activity,K-562R [27],inactive
CCCc1nc2ccccc2n1Cc1ccc(-c2ccccc2C(N)=O)cc1,Activity,COS-7,Non-toxic
CCCc1nc2ccccc2n1Cc1ccccc1C(=O)O,Activity,COS-7,Non-toxic
same,Activity,K-562R [27],inactive
CCCc1nc2ccccc2n1Cc1ccc(-c2ccccc2C(=O)O)cc1,Activity,COS-7,Non-toxic
same,Activity,K-562R [27],inactive
COc1cc2c(cc1OC)CN(CCc1ccc(NC(=O)c3cccc4c(=O)c5cccc(OC)c5[nH]c34)cc1)CC2,Activity,K-562R [28],Active
same,Activity,K562,inactive
same,Activity,K-562R [29],inactive
same,Activity,K562-r [2],inactive
same,Activity,K562-r [30],inactive
same,Activity,K562-r [26],inactive
same,inhibition,K-562R [31],Active
CCCc1nc2ccccc2n1Cc1ccc(C(N)=O)cc1,Activity,COS-7,Non-toxic
same,Activity,K-562R [27],inactive
CCCc1nc2ccccc2n1Cc1ccc(-c2cccc(C(=O)O)c2)cc1,Activity,COS-7,Non-toxic
same,Activity,K-562R [27],inactive
C/C=C/C[C@@H](C)C(=O)[C@H]1C(=O)N[C@@H](C(C)C)C(=O)N(C)CC(=O)N(C)[C@@H](CC(C)C)C(=O)N[C@@H](C(C)C)C(=O)N(C)[C@@H](CC(C)C)C(=O)N[C@@H](C)C(=O)N[C@H](C)C(=O)N(C)[C@@H](CC(C)C)C(=O)N(C)[C@@H](CC(C)C)C(=O)N(C)[C@@H](C(C)C)C(=O)N1C,Activity,K-562R [28],Active
same,Activity,K562,inactive
same,Activity,K-562R [29],inactive
CCCc1nc2ccccc2n1Cc1cccc(C(N)=O)c1,Activity,COS-7,Non-toxic
same,Activity,K-562R [27],inactive
CCCc1nc2ccccc2n1Cc1ccc(-c2ccc(C(=O)OC)cc2)cc1,Activity,COS-7,Non-toxic
same,viability at 10 µM,K-562R [32],~75%
same,Activity,K-562R [1],inactive
same,Activity,K562-r [2],inactive
same,inhibition,K562-r [3],Active
same,inhibition,K562-r [4],Active
same,inhibition,K-562R [5],Active
CCCc1nc2ccccc2n1Cc1ccc(C(=O)OC)cc1,Activity,COS-7,Non-toxic
same,viability at 10 µM,K-562R [24],34%
same,Activity,K-562R [25],44%
same,inhibition,K-562R [5],inactive
CCCc1nc2ccccc2n1Cc1cccc(C(=O)OC)c1,Activity,COS-7,Non-toxic
same,viability at 10 µM,K-562R [24],34%
same,Activity,K-562R [25],44%
same,inhibition,K-562R [5],inactive
CCCc1nc2ccccc2n1Cc1ccc(-c2ccc(C(=O)O)cc2)cc1,Activity,COS-7,Non-toxic
same,Activity,K-562R [27],inactive
CCCc1nc2ccccc2n1Cc1cccc(C(=O)O)c1,Activity,COS-7,Non-toxic
same,Activity,K-562R [27],inactive
CCCc1nc2ccccc2n1Cc1ccc(-c2ccc(C(N)=O)cc2)cc1,Activity,COS-7,Non-toxic
same,Activity,K-562R [1],inactive
same,Activity,K562-r [2],inactive
same,inhibition,K562-r [3],Active
same,inhibition,K562-r [4],Active
same,inhibition,K-562R [5],Active
same,inhibition,MCF7 [6],inactive
same,inhibition,A549 [7],inactive
same,inhibition,A2780/Taxol [8],Active
same,inhibition,[9],Active
same,inhibition,[10],Active
same,inhibition,[11],Active
same,inhibition,[12],Active
same,inhibition,[13],Active
same,inhibition,MCF7 [14],Active
same,inhibition,A549 [15],Active
same,Activity,A2780/Taxol [16],inactive
same,Activity,MCF7 [17],inactive
same,Activity,A549 [18],inactive
same,Activity,[19],Active
same,Activity,A2780/Taxol [20],Active
same,Activity,[21],Active
same,Activity,[22],Active
same,Activity,[23],Active
COc1ccc(CCN(C)CCCC(C#N)(c2ccc(OC)c(OC)c2)C(C)C)cc1OC (configuration not stated),Activity,K-562R [28],Active
same,Activity,K562,inactive
same,Activity,K-562R [29],inactive
CCCc1nc2ccccc2n1Cc1ccccc1C(N)=O,Activity,COS-7,Non-toxic
same,viability at 10 µM,K-562R [32],~75%
same,Activity,K-562R [27],inactive
CCCc1nc2ccccc2n1Cc1ccc(-c2ccccc2C(=O)OC)cc1,Activity,COS-7,Non-toxic
same,Activity,K-562R [1],inactive
same,Activity,K562-r [2],inactive
same,inhibition,K562-r [3],Active; Lesser Effect Observed
same,Activity,K562-r [26],inactive
same,inhibition,K-562R [5],Active
CCCc1nc2ccccc2n1Cc1ccc(-c2cccc(C(=O)OC)c2)cc1,Activity,COS-7,Non-toxic
same,viability at 10 µM,K-562R [24],34%
